We go through 2 compounds from ChEMBL document CHEMBL4311986, “Synthesis and biological evaluation of new multi-target 3-(1H-indol-3-yl)pyrrolidine-2,5-dione derivatives with potential antidepressant effect” (Eur J Med Chem, 2019).

SMILES strings stand for the structures. Activity calls are given as the source filed them. The calls are words filed in the database; no cut-off is given here.

Series [1] has as its target 5-hydroxytryptamine receptor 7 (Homo sapiens, UniProt P34969). Put plainly: Displacement of [3H]-5-CT from human 5HT7 receptor expressed in HEK293 cells incubated for 1 hr by liquid scintillation counting method. The class given is cell-based. (Loss of bound radioactivity is the signal in a displacement assay; it reports binding, not function.)
A further series concerns the target D(2) dopamine receptor (Homo sapiens, UniProt P14416). Briefly: Displacement of [3H]-raclopride from human D2L receptor expressed in HEK293 cells incubated for 1 hr by liquid scintillation counting method. The class given is cell-based.
Series [2] addresses T1, 5-hydroxytryptamine receptor 1A (Homo sapiens, UniProt P08908).
T1 sequence (P08908 whole entry): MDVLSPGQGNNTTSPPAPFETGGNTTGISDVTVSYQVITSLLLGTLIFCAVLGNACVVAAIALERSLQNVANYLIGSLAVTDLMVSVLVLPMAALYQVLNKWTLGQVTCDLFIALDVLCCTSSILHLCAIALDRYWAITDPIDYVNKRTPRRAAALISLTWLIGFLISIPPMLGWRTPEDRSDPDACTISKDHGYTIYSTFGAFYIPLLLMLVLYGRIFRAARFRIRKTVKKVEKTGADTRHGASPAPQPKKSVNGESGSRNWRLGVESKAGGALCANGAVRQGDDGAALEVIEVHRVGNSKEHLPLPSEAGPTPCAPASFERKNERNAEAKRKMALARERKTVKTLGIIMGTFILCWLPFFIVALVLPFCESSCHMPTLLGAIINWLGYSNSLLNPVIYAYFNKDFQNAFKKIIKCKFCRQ

Series [3] deals with 5-hydroxytryptamine receptor 2B (Homo sapiens, UniProt P41595). Put plainly: Binding affinity to 5-HT2BR (unknown origin).
Chain of 5-hydroxytryptamine receptor 2B (P41595 whole entry): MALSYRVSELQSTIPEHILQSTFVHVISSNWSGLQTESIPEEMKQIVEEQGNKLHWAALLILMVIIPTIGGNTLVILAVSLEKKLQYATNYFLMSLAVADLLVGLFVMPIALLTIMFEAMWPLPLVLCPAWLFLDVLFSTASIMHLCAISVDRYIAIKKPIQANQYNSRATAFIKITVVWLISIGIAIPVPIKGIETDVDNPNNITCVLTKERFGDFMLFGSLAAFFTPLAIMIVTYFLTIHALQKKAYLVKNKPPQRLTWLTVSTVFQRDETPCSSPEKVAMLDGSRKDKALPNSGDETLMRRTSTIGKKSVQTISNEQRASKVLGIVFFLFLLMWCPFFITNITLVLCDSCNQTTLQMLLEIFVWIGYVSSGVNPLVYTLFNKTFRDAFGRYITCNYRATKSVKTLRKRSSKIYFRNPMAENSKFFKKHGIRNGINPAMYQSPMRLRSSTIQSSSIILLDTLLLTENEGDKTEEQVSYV
For series [4], the system named is Mus musculus. Briefly: Induction of hypothermia in CD-1 mouse assessed as change in body temperature at 5 mg/kg, ip measured after 60 mins by thermometric method. The class given is functional, organism-based.
The subject of series [5] is Mus musculus. Briefly: Induction of hypothermia in CD-1 mouse assessed as change in body temperature at 10 mg/kg, ip pretreated for 60 mins with 5-HT1AR antagonist WAY100635 followed by compound treatment and measured after 30 mins by thermometric method. The class given is functional, organism-based.
Series [6] has as its system Mus musculus. Briefly: Induction of hypothermia in CD-1 mouse assessed as change in body temperature at 10 mg/kg, ip pretreated for 30 mins with 5-HT1AR antagonist WAY100635 followed by compound treatment and measured after 30 mins by thermometric method. The class given is functional, organism-based.
Series [7] concerns Mus musculus. Briefly: Induction of hypothermia in CD-1 mouse assessed as change in body temperature at 15 mg/kg, ip measured after 60 mins by thermometric method (reference value: -0.2 to 0.5 deg C). In kind it is functional, organism-based.
The test system of series [8] is Alpha-1 adrenergic receptor (Rattus norvegicus). Put plainly: Displacement of [3H]-prazosin from rat cortex alpha1 adrenergic receptor incubated for 30 mins by microbeta scintillation counting method.
Series [9] relates to Mus musculus. Briefly: Induction of hypothermia in CD-1 mouse assessed as change in body temperature at 20 mg/kg, ip measured after 30 mins by thermometric method. In kind it is functional, organism-based.
Series [10] in a line: Half life in human liver microsomes at 1 uM measured for 5 to 30 mins in presence of NADPH by LC-MS/MS analysis. In kind it is ADME, Microsome. Background: Liver microsomes are vesicles of endoplasmic reticulum, rich in cytochrome P450 enzymes.
Series [11] has as its target T2, hERG (KCNH2) (Homo sapiens, UniProt Q12809). Put plainly: Inhibition of human ERG at 0.1 uM by automated patch-clamp assay relative to control. For orientation: The patch-clamp technique gives a direct electrical read-out from membranes.
Series [12] concerns Mus musculus. Briefly: Induction of hypothermia in CD-1 mouse assessed as change in body temperature at 10 mg/kg, ip measured after 90 mins by thermometric method. The class given is functional, organism-based.
Series [13] addresses T2, hERG (KCNH2). Put plainly: Inhibition of human ERG at 10 uM by automated patch-clamp assay relative to control.
Series [14] deals with Mus musculus. Put plainly: Induction of hypothermia in CD-1 mouse assessed as change in body temperature at 15 mg/kg, ip measured after 90 mins by thermometric method (reference value: -0.3 to 0.3 deg C). The class given is functional, organism-based.
Series [15] concerns Mus musculus. Briefly: Induction of hypothermia in CD-1 mouse assessed as change in body temperature at 10 mg/kg, ip measured after 60 mins by thermometric method. The class given is functional, organism-based.
In series [16] the test system is Mus musculus. Briefly: Induction of hypothermia in CD-1 mouse assessed as change in body temperature at 5 mg/kg, ip measured after 30 mins by thermometric method. The class given is functional, organism-based.
The target of series [17] is T2, hERG (KCNH2). Put plainly: Inhibition of human ERG at 1 uM by automated patch-clamp assay relative to control.
Series [18] concerns Mus musculus. Briefly: Induction of hypothermia in CD-1 mouse assessed as change in body temperature at 5 mg/kg, ip measured after 120 mins by thermometric method. In kind it is functional, organism-based.
Series [19] concerns Mus musculus. Briefly: Induction of hypothermia in CD-1 mouse assessed as change in body temperature at 15 mg/kg, ip measured after 30 mins by thermometric method (reference value: -0.2 to 0.4 deg C). The class given is functional, organism-based.
Series [20] has as its system Mus musculus. Briefly: Induction of hypothermia in CD-1 mouse assessed as change in body temperature at 10 mg/kg, ip measured after 120 mins by thermometric method. The class given is functional, organism-based.
Series [21] deals with Mus musculus. Briefly: Antidepressant-like activity in CD-1 mouse at 10 mg/kg, ip treated for 30 mins and measured for 4 mins by forced swim test.
The test system of series [22] is Mus musculus. Briefly: Induction of hypothermia in CD-1 mouse assessed as change in body temperature at 20 mg/kg, ip measured after 60 mins by thermometric method. In kind it is functional, organism-based.
Series [23] concerns Mus musculus. Put plainly: Antidepressant-like activity in CD-1 mouse assessed as decrease in immobility time at 10 mg/kg, ip treated for 30 mins and measured for 4 mins by forced swim test. In kind it is functional, organism-based.
Series [24] deals with Mus musculus. Put plainly: Induction of hypothermia in CD-1 mouse assessed as change in body temperature at 20 mg/kg, ip measured after 90 mins by thermometric method. In kind it is functional, organism-based.
For series [25], the system named is Mus musculus. Put plainly: Induction of hypothermia in CD-1 mouse assessed as change in body temperature at 15 mg/kg, ip measured after 120 mins by thermometric method (reference value: -0.1 to 0.3 deg C). The class given is functional, organism-based.
In series [26] the test system is Mus musculus. Briefly: Induction of hypothermia in CD-1 mouse assessed as change in body temperature at 5 mg/kg, ip measured after 90 mins by thermometric method. In kind it is functional, organism-based.
The test system of series [27] is Mus musculus. Briefly: Induction of hypothermia in CD-1 mouse assessed as change in body temperature at 20 mg/kg, ip measured after 120 mins by thermometric method. In kind it is functional, organism-based.
The subject of series [28] is Mus musculus. Put plainly: Induction of hypothermia in CD-1 mouse assessed as change in body temperature at 10 mg/kg, ip measured after 30 mins by thermometric method. In kind it is functional, organism-based.

T2 sequence (Q12809 whole entry): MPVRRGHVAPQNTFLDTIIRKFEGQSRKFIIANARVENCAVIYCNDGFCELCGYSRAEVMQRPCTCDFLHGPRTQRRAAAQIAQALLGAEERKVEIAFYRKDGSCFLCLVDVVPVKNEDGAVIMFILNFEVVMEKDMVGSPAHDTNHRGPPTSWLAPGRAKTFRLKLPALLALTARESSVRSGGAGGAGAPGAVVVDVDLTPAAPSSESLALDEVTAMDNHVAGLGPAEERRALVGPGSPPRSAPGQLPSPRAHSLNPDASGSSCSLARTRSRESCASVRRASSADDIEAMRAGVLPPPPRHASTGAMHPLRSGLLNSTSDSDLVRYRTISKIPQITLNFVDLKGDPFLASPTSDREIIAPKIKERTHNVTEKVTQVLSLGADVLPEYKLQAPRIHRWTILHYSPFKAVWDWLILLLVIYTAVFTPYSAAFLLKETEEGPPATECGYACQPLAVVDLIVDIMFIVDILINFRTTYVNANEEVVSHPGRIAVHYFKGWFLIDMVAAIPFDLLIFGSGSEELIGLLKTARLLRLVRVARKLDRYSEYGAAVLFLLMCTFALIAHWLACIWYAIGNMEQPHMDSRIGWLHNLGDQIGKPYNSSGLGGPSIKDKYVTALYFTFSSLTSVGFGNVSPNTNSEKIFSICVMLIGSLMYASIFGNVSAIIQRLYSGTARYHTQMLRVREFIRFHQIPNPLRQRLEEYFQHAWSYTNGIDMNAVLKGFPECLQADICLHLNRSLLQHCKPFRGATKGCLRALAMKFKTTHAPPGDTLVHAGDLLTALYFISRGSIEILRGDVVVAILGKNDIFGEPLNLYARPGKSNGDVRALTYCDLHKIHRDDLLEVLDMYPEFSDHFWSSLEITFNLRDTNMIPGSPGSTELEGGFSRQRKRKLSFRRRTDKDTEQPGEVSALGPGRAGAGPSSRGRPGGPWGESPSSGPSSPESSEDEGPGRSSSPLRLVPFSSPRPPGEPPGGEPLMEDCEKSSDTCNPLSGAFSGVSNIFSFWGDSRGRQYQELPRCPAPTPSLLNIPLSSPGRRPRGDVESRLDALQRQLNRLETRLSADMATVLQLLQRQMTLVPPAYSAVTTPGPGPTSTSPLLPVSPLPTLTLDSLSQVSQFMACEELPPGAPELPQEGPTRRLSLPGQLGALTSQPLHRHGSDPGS
Chain of 5-hydroxytryptamine receptor 7 (P34969 whole entry): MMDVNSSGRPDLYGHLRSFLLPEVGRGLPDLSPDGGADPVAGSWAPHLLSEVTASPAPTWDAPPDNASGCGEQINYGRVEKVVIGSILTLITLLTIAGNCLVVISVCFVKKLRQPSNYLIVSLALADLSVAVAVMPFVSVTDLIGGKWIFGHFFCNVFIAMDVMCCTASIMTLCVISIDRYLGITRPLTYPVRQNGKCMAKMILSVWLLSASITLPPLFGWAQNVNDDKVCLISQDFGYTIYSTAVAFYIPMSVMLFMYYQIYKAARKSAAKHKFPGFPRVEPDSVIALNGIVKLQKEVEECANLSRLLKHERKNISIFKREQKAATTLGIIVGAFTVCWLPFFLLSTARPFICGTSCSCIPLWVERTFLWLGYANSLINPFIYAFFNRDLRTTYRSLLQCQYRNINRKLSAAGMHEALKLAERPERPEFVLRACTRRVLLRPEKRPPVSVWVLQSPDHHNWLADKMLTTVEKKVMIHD
Chain of D(2) dopamine receptor (P14416 whole entry): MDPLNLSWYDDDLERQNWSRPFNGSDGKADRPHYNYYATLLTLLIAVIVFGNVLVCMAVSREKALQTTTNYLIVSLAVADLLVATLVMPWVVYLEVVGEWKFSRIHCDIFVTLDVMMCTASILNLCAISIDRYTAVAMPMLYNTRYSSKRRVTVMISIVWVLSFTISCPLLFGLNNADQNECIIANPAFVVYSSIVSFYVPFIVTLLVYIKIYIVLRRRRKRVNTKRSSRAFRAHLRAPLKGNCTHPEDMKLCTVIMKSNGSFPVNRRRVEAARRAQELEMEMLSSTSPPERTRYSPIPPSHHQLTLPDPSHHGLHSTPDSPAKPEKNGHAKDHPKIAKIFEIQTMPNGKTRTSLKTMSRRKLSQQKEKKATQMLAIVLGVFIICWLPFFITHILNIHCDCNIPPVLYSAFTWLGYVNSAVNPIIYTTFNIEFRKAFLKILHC

Usually Ki stands for the dissociation constant of the complex between target and ligand, obtained from inhibition or displacement. For the compound `O=c1ccc2ccc(OCCCCN3CCN(c4cccc5sccc45)CC3)cc2[nH]1` [BREXPIPRAZOLE], the Ki in series [1] was 3.7 nM; on D(2) dopamine receptor, 0.3 nM; in series [2] it was 0.12 nM; in series [3], 0.398 nM.

One may read the half-life as the time in which the quantity being followed falls by half. Usually inhibition stands for the drop in the measured response relative to a control, in per cent. A high value points to strong suppression. As to `O=C1CC(c2c[nH]c3ccccc23)C(=O)N1CCCCN1CCC(c2c[nH]c3ccc(F)cc23)CC1` (centres undefined), the deltaT in the series with Mus musculus [4] was 0.4 °C; with Mus musculus [5] it was 0.7 °C; in the series with Mus musculus [6] it was -0.1 °C; with Mus musculus [7], -0.8 °C; with Mus musculus [9], -2.2 °C; with Mus musculus [12] it was 0.1 °C. The deltaT in the series with Mus musculus [14] is 0 °C; with Mus musculus [15] it was -0.5 °C; in the series on Mus musculus [16], 0.3 °C; with Mus musculus [18], 0.2 °C; in the series on Mus musculus [19] it was -2 °C; with Mus musculus [20] it was 0.2 °C. For the same compound, the deltaT was -1 °C with Mus musculus [22]; -0.4 °C in the series with Mus musculus [24]; 0.3 °C in the series on Mus musculus [25]; 0.5 °C with Mus musculus [26]; -0.3 °C with Mus musculus [27]; -1.4 °C with Mus musculus [28]. Also, the outcome (in [8]; in the series with Mus musculus [21]; in the series with Mus musculus [23]) was Active. Besides, the half-life at 1 µM in [10] came to 11.5 min. This compound gave an inhibition at 0.1 µM against hERG (KCNH2) [11] of 45.1%. The compound also gave an inhibition at 10 µM against hERG (KCNH2) [13] of 96.4%. Testing at 1 µM against hERG (KCNH2) [17] gave an inhibition of 84.7%.
